Where “and” joins values, the source holds several entries; their conditions need not be identical. Equal entries are not always repeated. Where a SMILES comes first, the peptide text is derived from it. [ ]: non-standard residue; d: D form. Hyp = O=C(O)[C@@H]1C[C@@H](O)CN1
Key:
CCL4/MIP-1 beta = assay: Example 9 Luminex, LPS hPBMCs: CCL4/MIP-1 beta; assay type: cell-based, human; settings: PBMC + LPS(5 ug/ml); for MFI (Bead name: CCL4/MIP-1 beta): dilution 10
Method: (§1) Treatment Human PBMCs were pretreated with YY-101, YDE-011 and YDE-043 or reference compound; Xiidra® at various concentration (ranging from 1 nM to 100 uM) for 2 h before stimulation. An equal volume of 0.5% DMSO was used as a vehicle control. Then, the cells were treated with LPS at 5 ug/ml. The supernatants from treated cells were harvested at 24 h and placed in a 96 well for Luminex cytokine & chemokine profiling using a Luminex 200 multiplex assay (Luminex; R&D system, USA).
(§2) The main study arm with triplicate wells per group in a 24-well plate: • 1. Blank • 2. PBMC: 0.5% DMSO • 3. PBMC+LPS (5 ug/ml) • 4. PBMC+YY-101 100 uM • 5. PBMC+YY-101 10 uM • 6. PBMC+YY-101 1 uM • 7. PBMC+YY-101 0.1 uM • 8. PBMC+YY-101 0.01 uM • 9. PBMC+LPS (5 ug/ml)+Xiidra®100 uM • 10. PBMC+LPS (5 ug/ml)+Xiidra® 10 uM • 11. PBMC+LPS (5 ug/ml)+Xiidra® 1 uM • 12. PBMC+LPS (5 ug/ml)+Xiidra®0.1 uM • 13. PBMC+LPS (5 ug/ml)+Xiidra®0.01 uM • 14. PBMC+LPS (5 ug/ml)+Xiidra®0.001 uM • 15. PBMC+LPS (5 ug/ml)+YY-101 100 uM • 16. PBMC+LPS (5 ug/ml)+YY-101 10 uM • 17. PBMC+LPS (5 ug/ml)+YY-101 1 uM • 18. PBMC+LPS (5 ug/ml)+YY-101 0.1 uM • 19. PBMC+LPS (5 ug/ml)+YY-101 0.01 uM • 20. PBMC+LPS (5 ug/ml)+YY-101 0.001 uM • 21. PBMC+LPS (5 ug/ml)+YDE-011 100 uM • 22. PBMC+LPS (5 ug/ml)+YDE-011 10 uM • 23. PBMC+LPS (5 ug/ml)+YDE-011 1 uM • 24. PBMC+LPS (5 ug/ml)+YDE-011 0.1 uM • 25. PBMC+LPS (5 ug/ml)+YDE-011 0.01 uM • 26. PBMC+LPS (5 ug/ml)+YDE-011 0.001 uM • 27. PBMC+LPS (5 ug/ml)+YDE-043 100 uM • 28. PBMC+LPS (5 ug/ml)+YDE-043 10 uM • 29. PBMC+LPS (5 ug/ml)+YDE-043 1 uM • 30. PBMC+LPS (5 ug/ml)+YDE-043 0.1 uM • 31. PBMC+LPS (5 ug/ml)+YDE-043 0.01 uM • 32. PBMC+LPS (5 ug/ml)+YDE-043 0.001 uM
(§3) Multiplex assay was used to measure 30 cytokines and chemokines. The 1:2, 1:10 and 1:200 diluted cell supernatant and serial dilution of the standard were dispensed into a 96 well plate at 50 ul/well. Then, the pre-mixed cocktail of antibody-coated magnetic beads was dispensed at 50 ul/well and incubated at room temperature for 2 h in a horizontal orbital microplate shaker at 800±500 rpm. The beads were washed using a magnetic device to prevent loss. The biotin-antibody was dispensed in 50 ul of each well and incubated at room temperature for 1 h in a shaker at 800±500 rpm. After washing, streptavidin-PE was added at 50 ul/well and incubated at room temperature for 30 min in a shaker under the same conditions. Finally, after washing, wash buffer (100 ul/well) was added to the plate and incubated in a shaker for 2 min. The Luminex™ 200 setting were set according to the manufacturer's protocol. The data was calculated with a standard five-parameter logistic nonlinear regression analysis of the data (xPonent software 4.2, USA). The levels of cytokine/chemokine are normalized to the live cell counts (1×10^5 cells/mL) and presented as concentrations per mL (pg/mL or ng/mL).

TNF-alpha = assay: Example 9 Luminex, LPS hPBMCs: TNF-alpha; assay type: cell-based, human
Method: as §1, §2, §3

[1] = test article 0.001 uM, single replicates
[2] = test article 0.01 uM, single replicates
[3] = test article 0.1 uM, single replicates
[4] = test article 1 uM, single replicates
[5] = test article 10 uM, single replicates
[6] = test article 100 uM, single replicates
[7] = PBMC + LPS(5 ug/ml) + test article 0.001 uM, Mean
[8] = PBMC + LPS(5 ug/ml) + test article 0.001 uM, individual replicates (1st, 2nd, 3rd)
[9] = PBMC + LPS(5 ug/ml) + test article 0.01 uM, Mean
[10] = PBMC + LPS(5 ug/ml) + test article 0.01 uM, individual replicates (1st, 2nd, 3rd)
[11] = PBMC + LPS(5 ug/ml) + test article 0.1 uM, Mean
[12] = PBMC + LPS(5 ug/ml) + test article 0.1 uM, individual replicates (1st, 2nd, 3rd)
[13] = PBMC + LPS(5 ug/ml) + test article 1 uM, Mean
[14] = PBMC + LPS(5 ug/ml) + test article 1 uM, individual replicates (1st, 2nd, 3rd)
[15] = PBMC + LPS(5 ug/ml) + test article 10 uM, Mean
[16] = PBMC + LPS(5 ug/ml) + test article 10 uM, individual replicates (1st, 2nd, 3rd)
[17] = PBMC + LPS(5 ug/ml) + test article 100 uM, Mean
[18] = PBMC + LPS(5 ug/ml) + test article 100 uM, individual replicates (1st, 2nd, 3rd)

CC(C)C[C@H](NC(=O)[C@H](CCC(N)=O)NC(=O)CNC(=O)[C@@H]1C[C@@H](O)CN1)C(=O)NCC(=O)O [YDE-043] (H-[Hyp]GQLG-OH; N-terminus and C-terminus assumed)
Concentration (CCL4/MIP-1 beta) (CCL4/MIP-1 beta; test article 0.001 uM, Mean): 7716.4 pg/mL | conc/live cell (CCL4/MIP-1 beta) (CCL4/MIP-1 beta; test article 0.001 uM, Mean): 1568.7 pg/10^5 | MFI (Bead name: CCL4/MIP-1 beta) (CCL4/MIP-1 beta; test article 0.001 uM, Mean): 177.7 | MFI (Bead name: CCL4/MIP-1 beta) (CCL4/MIP-1 beta; [1]): 165.5 and 185.0 and 182.5 | Concentration (CCL4/MIP-1 beta) (CCL4/MIP-1 beta; [1]): 7441.6 pg/mL and 7881.5 pg/mL and 7826.1 pg/mL | conc/live cell (CCL4/MIP-1 beta) (CCL4/MIP-1 beta; [1]): 1691.3 pg/10^5 and 1313.6 pg/10^5 and 1701.3 pg/10^5 | Concentration (CCL4/MIP-1 beta) (CCL4/MIP-1 beta; test article 0.01 uM, Mean): 7755.3 pg/mL | conc/live cell (CCL4/MIP-1 beta) (CCL4/MIP-1 beta; test article 0.01 uM, Mean): 1483.8 pg/10^5 | MFI (Bead name: CCL4/MIP-1 beta) (CCL4/MIP-1 beta; test article 0.01 uM, Mean): 179.3 | MFI (Bead name: CCL4/MIP-1 beta) (CCL4/MIP-1 beta; [2]): 178.0 and 177.0 and 183.0 | Concentration (CCL4/MIP-1 beta) (CCL4/MIP-1 beta; [2]): 7725.6 pg/mL and 7703.2 pg/mL and 7837.2 pg/mL | conc/live cell (CCL4/MIP-1 beta) (CCL4/MIP-1 beta; [2]): 1716.8 pg/10^5 and 1167.1 pg/10^5 and 1567.4 pg/10^5 | Concentration (CCL4/MIP-1 beta) (CCL4/MIP-1 beta; test article 0.1 uM, Mean): 7358.9 pg/mL | conc/live cell (CCL4/MIP-1 beta) (CCL4/MIP-1 beta; test article 0.1 uM, Mean): 1365.2 pg/10^5 | MFI (Bead name: CCL4/MIP-1 beta) (CCL4/MIP-1 beta; test article 0.1 uM, Mean): 162.0 | MFI (Bead name: CCL4/MIP-1 beta) (CCL4/MIP-1 beta; [3]): 153.5 and 159.5 and 173.0 | Concentration (CCL4/MIP-1 beta) (CCL4/MIP-1 beta; [3]): 7161.3 pg/mL and 7302.4 pg/mL and 7612.9 pg/mL | conc/live cell (CCL4/MIP-1 beta) (CCL4/MIP-1 beta; [3]): 1432.3 pg/10^5 and 1304.0 pg/10^5 and 1359.5 pg/10^5 | Concentration (CCL4/MIP-1 beta) (CCL4/MIP-1 beta; test article 1 uM, Mean): 7359.3 pg/mL | conc/live cell (CCL4/MIP-1 beta) (CCL4/MIP-1 beta; test article 1 uM, Mean): 1391.3 pg/10^5 | MFI (Bead name: CCL4/MIP-1 beta) (CCL4/MIP-1 beta; test article 1 uM, Mean): 162.3 | MFI (Bead name: CCL4/MIP-1 beta) (CCL4/MIP-1 beta; [4]): 175.0 (2×) and 137.0 | Concentration (CCL4/MIP-1 beta) (CCL4/MIP-1 beta; [4]): 7658.2 pg/ml (2×) and 6761.7 pg/ml | conc/live cell (CCL4/MIP-1 beta) (CCL4/MIP-1 beta; [4]): 1320.4 pg/10^5 and 1408.7 pg/10^5 and 1444.9 pg/10^5 | Concentration (CCL4/MIP-1 beta) (CCL4/MIP-1 beta; test article 10 uM, Mean): 7298.5 pg/mL | conc/live cell (CCL4/MIP-1 beta) (CCL4/MIP-1 beta; test article 10 uM, Mean): 1352.7 pg/10^5 | MFI (Bead name: CCL4/MIP-1 beta) (CCL4/MIP-1 beta; test article 10 uM, Mean): 159.3 | MFI (Bead name: CCL4/MIP-1 beta) (CCL4/MIP-1 beta; [5]): 159.0 and 158.0 and 161.0 | Concentration (CCL4/MIP-1 beta) (CCL4/MIP-1 beta; [5]): 7290.8 pg/mL and 7267.3 pg/mL and 7337.4 pg/mL | conc/live cell (CCL4/MIP-1 beta) (CCL4/MIP-1 beta; [5]): 1402.1 pg/10^5 and 1345.8 pg/10^5 and 1310.3 pg/10^5 | Concentration (CCL4/MIP-1 beta) (CCL4/MIP-1 beta; test article 100 uM, Mean): 6094.9 pg/mL | conc/live cell (CCL4/MIP-1 beta) (CCL4/MIP-1 beta; test article 100 uM, Mean): 968.2 pg/10^5 | MFI (Bead name: CCL4/MIP-1 beta) (CCL4/MIP-1 beta; test article 100 uM, Mean): 111.3 | MFI (Bead name: CCL4/MIP-1 beta) (CCL4/MIP-1 beta; [6]): 118.5 and 104.0 | Concentration (CCL4/MIP-1 beta) (CCL4/MIP-1 beta; [6]): 6290.4 pg/mL and 5899.5 pg/mL | conc/live cell (CCL4/MIP-1 beta) (CCL4/MIP-1 beta; [6]): 1014.6 pg/10^5 and 921.8 pg/10^5 | TNF-alpha Concentration (TNF-alpha; [7]): 1325.0 pg/mL | TNF-alpha conc/live cell (TNF-alpha; [7]): 268.4 pg/10^5 | TNF-alpha Concentration (TNF-alpha; [8]): 1248.3 pg/mL and 1405.1 pg/mL and 1321.4 pg/mL | TNF-alpha conc/live cell (TNF-alpha; [8]): 283.7 pg/10^5 and 234.2 pg/10^5 and 287.3 pg/10^5 | TNF-alpha Concentration (TNF-alpha; [9]): 1327.4 pg/mL | TNF-alpha conc/live cell (TNF-alpha; [9]): 253.6 pg/10^5 | TNF-alpha Concentration (TNF-alpha; [10]): 1282.6 pg/mL and 1322.9 pg/mL and 1376.7 pg/mL | TNF-alpha conc/live cell (TNF-alpha; [10]): 285.0 pg/10^5 and 200.4 pg/10^5 and 275.3 pg/10^5 | TNF-alpha Concentration (TNF-alpha; [11]): 1319.0 pg/mL | TNF-alpha conc/live cell (TNF-alpha; [11]): 244.5 pg/10^5 | TNF-alpha Concentration (TNF-alpha; [12]): 1254.3 pg/mL and 1333.4 pg/mL and 1369.2 pg/mL | TNF-alpha conc/live cell (TNF-alpha; [12]): 250.9 pg/10^5 and 238.1 pg/10^5 and 244.5 pg/10^5 | TNF-alpha Concentration (TNF-alpha; [13]): 1260.8 pg/mL | TNF-alpha conc/live cell (TNF-alpha; [13]): 238.1 pg/10^5 | TNF-alpha Concentration (TNF-alpha; [14]): 1330.4 pg/mL and 1136.7 pg/mL and 1315.4 pg/mL | TNF-alpha conc/live cell (TNF-alpha; [14]): 229.4 pg/10^5 and 236.8 pg/10^5 and 248.2 pg/10^5 | TNF-alpha Concentration (TNF-alpha; [15]): 1247.9 pg/mL | TNF-alpha conc/live cell (TNF-alpha; [15]): 231.0 pg/10^5 | TNF-alpha Concentration (TNF-alpha; [16]): 1175.4 pg/mL and 1249.8 pg/mL and 1318.4 pg/mL | TNF-alpha conc/live cell (TNF-alpha; [16]): 226.0 pg/10^5 and 231.4 pg/10^5 and 235.4 pg/10^5 | TNF-alpha Concentration (TNF-alpha; [17]): 901.5 pg/mL | TNF-alpha conc/live cell (TNF-alpha; [17]): 143.3 pg/10^5 | TNF-alpha Concentration (TNF-alpha; [18]): 956.0 pg/mL and 847.0 pg/mL | TNF-alpha conc/live cell (TNF-alpha; [18]): 154.2 pg/10^5 and 132.4 pg/10^5

Source: patent US20230146455A1, “TREATMENT OF INFLAMMATORY DISEASES WITH PEPTIDES AND PHARMACEUTICAL COMPOSITIONS” (Yuyu Pharma, Inc., priority 2020, published 2023)
